Results as given in paper PMC3458928, “Co-Factor Binding Confers Substrate Specificity to Xylose Reductase from Debaryomyces hansenii” (PLoS ONE, 2012).
Values joined by “and” are separate entries in the source; they are usually repeats but may differ in a detail not shown here. Equal entries are not always repeated. Where two headings read alike, the source gives them in different places.

B1: holo-DhXR (Debaryomyces hansenii CBS767) (protein)
chain: MSIKLNSGYDMPLVGFGCWKVDNDTCAATIYNAIKVGYRLFDAAQDYGNCKEIGEGINKALDEGLVARDELFITSKLWNSYHDPKNVELALKKVLSDMKLDYLDLFLIHFPIAFKFVPIEERYPPGFYCGDGDKFHYENVPLADTWKAMEKLTKSGKVKSIGISNFSGALIYDLLRSAEIKPAVLQIEHHPYLQQPRLVEYVQSQNIAITGYSSFGPQSFLELKHSKALDTPTLFEHKTIKSIANKNKKTPAQVLLRWASQRNIAVIPKSNNPDRLLQNLEVNDFDLSKEDFEEISKLDQELRFNNPWDWDKIPIFA

Key:
holo-DhXR [1] = biological target: T1, holo-DhXR (Debaryomyces hansenii, UniProt Q6BLI9); test: Steady state kinetics of carbonyl substrate reduction by holo-DhXR (A340, NADPH); assay type: biochemical; settings: for Vmax / k cat: 25 °C, pH 7.0, 0.15 mM NADPH, 0.18 µM enzyme; for Km/Kd ratio (net affinity loss): Km of holoenzyme vs Kd of apoenzyme; for catalysis in steady state kinetic curves (in words): comparison of kinetic curves of different sugars
Procedure: (§1) The xylose reductase activities of recombinant DhXR was determined spectrophotometrically by monitoring the change in A340 upon reduction of NADPH to NADP. The standard assay mixture contained 50 mM KPO4, pH 7.0, 100 mM sugar substrate, 0.3 mM NADPH, 0.18 µM of enzyme. Single point activity studies were performed at 40°C and all reactions were started by the addition of enzyme to a final volume of 0.8 ml (in standard assay condition). […] Errors for the activity assays were calculated from triplicate experiments. The kinetic parameters were determined using a range of substrate concentrations. Here, the reaction was performed at 25°C and assay mixture contained 50 mM KPO4, pH 7.0, 0.15 mM NADPH, 0.18 µM of enzyme and varying substrate concentrations. Steady state kinetics data were fit to Michaelis-Menten model, v = Vmax * [S]/([S]+Km), where Vmax, maximal velocity; Km, Michaelis-Menten constant; S, substrate concentration, and v, initial velocity.
To understand the specificity determining component in catalysis, we studied the steady state kinetics of holo-DhXR towards different carbonyl substrates. […] Therefore, all kinetic data analyzed fitting to Michaelis-Menten model by Non-Linear Least Squares method. (Fig. 4A). Steady state kinetic parameters are also determined for other sugars (table 3, Fig. 4B). […] We compared the Km/Kd ratio as an indicator of net affinity loss for a given substrate (Fig. S5).
In order to further verify that holoenzyme discriminates between substrate and non-substrate sugars, we challenged the catalysis of D-xylose by adding non-substrate sugars during kinetic experiments. […] We studied the kinetics of D-xylose reduction by holo-DhXR in the presence of fixed concentration (∼40 mM) of three sugars (Fig. 4C).

[2] = biological target: apo-DhXR (wild type xylose reductase) (Debaryomyces hansenii, UniProt Q6BLI9); test: Tryptophan fluorescence quenching titration, ligand binding to apo-DhXR wild type
Procedure: (§2) Titrations of DhXR with ligands were examined by monitoring the intrinsic tryptophan fluorescence of DhXR using a Varian spectrofluorometer. Experiments were performed in indicated buffers as mentioned in the text. The excitation wavelength and emission wavelengths for monitoring DhXR-ligand interaction were 292 nm and 345 nm respectively. Slit widths were set to 5 nm for all experiments and PMT voltage was adjusted to get maximum signal for a given protein concentration. All experiments were done at 25.0±1°C. Initial readings of both the protein, Fprotein,0 and buffer, Fbuff,0 were taken, with F0 = Fprotein,0–Fbuff,0 defined as the initial fluorescence of the sample. The sample cuvette was then titrated with aliquots of ligands and mixed, and equilibrated for 3–4 minutes before measurement. Data points from five such measurements were averaged to obtain Fave,i. The relative fluorescence quenching upon sugar binding is defined as Qobs,i = (F0–Fave,i)/F0. All measurements were corrected for dilution, and inner filter effects.
(§3) Binding of ligands to DhXR was analyzed using two site binding model. [drawing 1] (1) where Q1 and Q2 are the fluorescence quenching corresponding to one and two ligands bound, respectively; L is concentration of free ligand in solution; K1,obs and K2,obs are association constants for the binding of the first and the second ligand molecule. Errors were calculated from fitting analysis of two independent experiments.
We examined the binding of D-xylose, xylitol, and NADPH to apo-DhXR. Quenching of tryptophan fluorescence upon ligand binding was used as the signal for monitoring the extent of binding. Apo-DhXR was excited at 292 nm and emission of tryptophan fluorescence was scanned between 300–375 nm (Fig. S2). […] Intrinsic site-specific binding constants are estimated from the macroscopic binding constants obtained from fitting by removing the statistical factors as in eq (2). [drawing 2] (2)

DhXR H109A mutant = DhXR H109A mutant (Debaryomyces hansenii, UniProt Q6BLI9, H109A); test: biochemical; assay type: binding
Procedure: as §2, §3
(§4) We tested the activity of all mutants and activities were normalized to the activity of wild type DhXR with respect to its D-xylose reducing activity.

DhXR K76A mutant = DhXR K76A mutant (Debaryomyces hansenii, UniProt Q6BLI9, K76A); test: biochemical; assay type: binding
Procedure: as §2, §3, §4

DhXR Y47A mutant = DhXR Y47A mutant (Debaryomyces hansenii, UniProt Q6BLI9, Y47A); test: biochemical; assay type: binding
Procedure: as §2, §3, §4

holo-DhXR [3] = biological target: T1, holo-DhXR; test: Specific activity of DhXR with 100 mM D-xylose in presence of competing sugars; assay type: biochemical
Procedure: as §1
(§5) Assays were performed at 100 mM D-xylose and concentrations of competing sugars were varied (25 mM to 400 mM). […] Both DhXR and NADPH (20.0 µM) are pre-incubated and fluorescence signal was monitored until no further change. […] It should be noted that D-xylose is the substrate and is very likely to be reduced soon after binding.

holo-DhXR [4] = biological target: T1, holo-DhXR; test: Single point specific activity of holo-DhXR towards different sugars; assay type: biochemical; settings: saturated sugar concentration (100 mM), 40 °C
Procedure: as §1

DhXR-NADPH complex = test: Fluorescence titration of pre-formed DhXR-NADPH binary complex; assay type: binding, Debaryomyces hansenii; settings: DhXR pre-incubated with 20.0 µM NADPH
Procedure: as §2, §5

DhXR D42A mutant = biological target: T2, DhXR D42A mutant (Debaryomyces hansenii, UniProt Q6BLI9, D42A); test: Fluorescence quenching titration, ligand binding to DhXR D42A mutant
T2 sequence (Q6BLI9 1-317 D42A): B1 chain
Procedure: as §2, §3, §4

DhXR D10A mutant = biological target: T3, DhXR D10A mutant (Debaryomyces hansenii, UniProt Q6BLI9, D10A); test: Fluorescence quenching titration, ligand binding to DhXR D10A mutant
T3 sequence (Q6BLI9 1-317 D10A): B1 chain
Procedure: as §2, §3, §4

DhXR N305A mutant = biological target: T4, DhXR N305A mutant (Debaryomyces hansenii, UniProt Q6BLI9, N305A); test: Fluorescence quenching titration, ligand binding to DhXR N305A mutant
T4 sequence (Q6BLI9 1-317 N305A): B1 chain
Procedure: as §2, §3, §4

[5] = substrate: O=C[C@H](O)[C@@H](O)[C@H](O)CO; test: Steady state kinetics of carbonyl substrate reduction by holo-DhXR (A340, NADPH); assay type: biochemical, Debaryomyces hansenii; settings: other: 25 °C, pH 7.0, 0.15 mM NADPH, 0.18 µM enzyme
[6] = Kd1,int, wild type apo-DhXR, first site, 25 °C
[7] = 25 mM sugar added in 100 mM D-xylose reaction
[8] = 100 mM sugar added in 100 mM D-xylose reaction
[9] = 400 mM sugar added in 100 mM D-xylose reaction
[10] = wild type apo-DhXR, first site, 25 °C, read-out: Kd1,int
[11] = wild type apo-DhXR, second site, 25 °C, read-out: Kd2,int

| Molecule | Vmax (holo-DhXR [1]) [nmol/min] | k cat (holo-DhXR [1]) [s⁻¹] | Kd (DhXR H109A mutant) [mM] | Kd (DhXR K76A mutant) [mM] | Kd (DhXR Y47A mutant) [mM] | reduction in affinity versus wild type (DhXR Y47A mutant; Y47A, first site) | Specific activity (holo-DhXR [3]; [7]) [nmol/min] | Specific activity (holo-DhXR [3]; [8]) [nmol/min] | Specific activity (holo-DhXR [3]; [9]) [nmol/min] | Kd [2, 10] [mM] | reduction of holoenzyme activity compared with D-xylose (holo-DhXR [4]) | other results |
| --- | --- | --- | --- | --- | --- | --- | --- | --- | --- | --- | --- | --- |
| O=C[C@H](O)[C@H](O)[C@H](O)CO [D-ribose] | 93.1 ± 3.2 | 10.3 | 13 ± 3 | 10 ± 2 | 12 ± 1 | ~2 fold | 77.5 ± 3.6 | 84.7 ± 3.8 | 78.5 ± 3.1 |  |  | Km/Kd ratio (net affinity loss) (holo-DhXR [1]): 12–15 fold; Kd [2, 6]: ~10.5 mM and 10.5 mM; fold less affinity than D-xylose ([2]; first site, apo-DhXR): ~2 fold; Kd ([2]; read-out: Kd2,int, wild type apo-DhXR, second site, 25 °C): 83 ± 7 mM; reduction in affinity versus wild type (DhXR K76A mutant; K76A): 2 fold |
| OC[C@@H](O)[C@H](O)[C@@H](O)CO [Xylitol, xylitol] |  |  |  |  |  |  |  |  |  | 8.2 ± 1 |  |  |
| OC[C@H]1O[C@@](CO)(O[C@H]2O[C@H](CO)[C@@H](O)[C@H](O)[C@H]2O)[C@@H](O)[C@@H]1O [Sucrose, sucrose] |  |  | 5 ± 0.2 | 10 ± 1 | 11 ± 2 | ~2 fold |  |  |  |  | more than 95% | Kd [2, 6]: 7.3 ± 1 mM; Kd ([2]; Kd2,int, wild type apo-DhXR, second site, 25 °C): 19 ± 5 mM; reduction in affinity versus wild type (DhXR H109A mutant; H109A): no reduction |
| C[C@H](O)[C@H](O)[C@@H](O)[C@@H](O)C=O [L-rhamnose] |  |  |  |  |  |  | 76.2 ± 6.4 | 73.4 ± 2.8 | 68.7 ± 3.4 | 14 ± 3 | more than 95% | binding to DhXR-NADPH complex (fluorescence signal) (DhXR-NADPH complex): cannot bind; catalysis in steady state kinetic curves (in words) (holo-DhXR [1]): very low activity; Km/Kd ratio (net affinity loss), predicted minimum (holo-DhXR [1]; could not be estimated due to insignificant catalysis, minimum predicted): > 500 fold; Kd [2, 11]: 33 ± 13 mM |
| O=C[C@H](O)[C@@H](O)[C@@H](O)[C@H](O)CO [D-galactose] | 136.5 ± 9.4 | 15.2 |  |  |  | 8–10 fold | 76.8 ± 3.8 | 84.4 ± 3.3 | 99.3 ± 4.3 |  | 50% |  |
| D-arabinose | 127.2 ± 6.1 | 14.1 |  |  |  | 8–10 fold | 69.4 ± 3.1 | 68.2 ± 3.7 | 66.5 ± 4.5 | 8.1 ± 1 |  | Km/Kd ratio (net affinity loss) (holo-DhXR [1]): ~220 fold; catalysis in steady state kinetic curves (in words) (holo-DhXR [1]): very weakly hydrolyzed; Km relative to that of D-xylose (holo-DhXR [1]; fold higher): 22 fold; Kd [2, 11]: 100 ± 10 mM; Kd (DhXR H109A mutant; H109A, first site, read-out: Kd1,int): 28 ± 3 mM; Kd (DhXR K76A mutant; K76A, first site, read-out: Kd1,int): 34 ± 4 mM; Kd (DhXR Y47A mutant; Y47A, first site, read-out: Kd1,int): 66 ± 13 mM |
| NC(=O)C1=CN([C@@H]2O[C@H](COP(=O)(O)OP(=O)(O)OC[C@H]3O[C@@H](n4cnc5c(N)ncnc54)[C@H](OP(=O)(O)O)[C@@H]3O)[C@@H](O)[C@H]2O)C=CC1 [NADPH, Nicotinamide adenine dinucleotide phosphate] |  |  | 0.0055 ± 0.002 | 0.01 ± 0.0006 | 0.01 ± 0.0007 |  |  |  |  |  |  | Kd (DhXR D42A mutant): 0.01 ± 0.0005 mM; Kd ([2]; Kd1,int, wild type apo-DhXR, first site, NADPH): 0.0011 ± 0.0002 mM; ratio of first to second intrinsic binding constant ([2]; affinity of first vs second ligand molecule): ~4; affinity of cofactor relative to substrate affinity ([2]; apoenzyme): ~4700 times; Kd ([2]; read-out: Kd2,int, wild type apo-DhXR, second site, NADPH): 0.0039 ± 0.0002 mM; K1,int (intrinsic association constant, first ligand) ([2]; wild type apo-DhXR): 8.9±0.4×10^5 M^−1; Kd (DhXR H109A mutant; read-out: Kd2,int, H109A, second site, NADPH): 0.083 ± 0.035 mM; Kd (DhXR Y47A mutant; read-out: Kd2,int, Y47A, second site, NADPH): 0.192 ± 0.026 mM; Kd (DhXR D10A mutant): 0.0033 ± 0.0002 mM; Kd (DhXR D10A mutant; read-out: Kd2,int, D10A, second site, NADPH): 0.01 ± 0.003 mM; Kd (DhXR N305A mutant): 0.0083 ± 0.002 mM; Kd (DhXR N305A mutant; read-out: Kd2,int, N305A, second site, NADPH): 0.09 ± 0.025 mM |
| B1 |  |  |  |  |  |  |  |  |  |  |  | Km [5]: 81 ± 6 mM; Vmax [5]: 0.185 µmol/min; kcat [5]: 20.6 s⁻¹; kcat/Km [5]: 254 M⁻¹ s⁻¹ |
